Like-named read-outs stand apart in the source and are kept apart here.
Columns and labels:
[1] = target: hCB2 (Homo sapiens, UniProt P34972); test: In vitro binding assay using hCB2-CHO membranes, [3H]-CP-55,940 displacement (Protocol IV); set-up: expressed in transfected cells; host or cells: CHO (hCB2-CHO, generated in-house); details: for inhibition at 0.3 µM: 1 h, read-out: % Displacement Protocol IV
Protocol: IV. Protocol for In Vitro Assay Using hCB2-CHO Membranes:
In this assay, [^3H]-CP-55,940 was used as the radioligand to bind human CB2 receptor expressed on the membranes from CHO cells (hCB2-CHO cell line was generated in-house) which can be displaced by unlabeled ligands having affinity to the CB2 receptor.
The assay was performed according to the modified method of Ross et al., 1999 (Br. J. Pharmacol. 128, 735-743). The reaction was set up in a total volume of 200 μl in PEI (0.2%) precoated Millipore GFB filter plates. 1 mM stocks of test compounds were prepared in DMSO and tested at a final concentration of 300 nM. The non-specific binding was determined by 0.5 μM CP-55, 940. The total reaction mixture contained Tris-BSA buffer (50 mM Tris, 5 mM MgCl2, 1 mM EDTA, pH 7.4 with 0.1% BSA), unlabelled CP-55, 940 (0.5 μM) or test samples, [^3H]-CP-55, 940 (0.75 nM) and 25-50 μg of human CB2 receptor preparation. The assay mixture (with or without the test compound) was incubated at 30° C. for 1 hour. The reaction was stopped by rapid filtration under vacuum and the radioactivity on the filters was measured by liquid scintillation counting.
The percent (%) displacement by a test ligand was calculated by comparing the specific bound values.

[2] = hCB2-CHO membranes, [3H]-CP-55,940 displacement

Chain of hCB2 (P34972 whole entry): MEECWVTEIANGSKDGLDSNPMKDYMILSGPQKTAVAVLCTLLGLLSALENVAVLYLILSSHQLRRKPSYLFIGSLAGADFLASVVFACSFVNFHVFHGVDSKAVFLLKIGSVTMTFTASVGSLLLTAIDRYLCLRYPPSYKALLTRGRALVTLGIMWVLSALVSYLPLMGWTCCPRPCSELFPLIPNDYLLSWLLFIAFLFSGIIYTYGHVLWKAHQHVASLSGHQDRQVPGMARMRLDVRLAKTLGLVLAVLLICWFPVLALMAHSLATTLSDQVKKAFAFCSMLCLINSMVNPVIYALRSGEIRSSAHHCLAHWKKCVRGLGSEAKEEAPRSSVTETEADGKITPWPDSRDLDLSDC

Compound	inhibition at 0.3 µM [1, 2] [%]	further results
CCOc1cc(F)ccc1-n1nc(C(=O)NC(C)(C)C)c2c1C1CCC2C1 (stereo not drawn) [Example 329, N(3)-(tert-Butyl)-1-(2-ethoxy,4-fluorophenyl)-4,5,6,7-tetrahydro-1H-4,7-methano-indazole-3-carboxamide]	88.5	
O=C(NCC1CCCCC1)c1nn(-c2ccc(F)cc2F)c2c1C1CCC2C1 (stereo not drawn) [Example 291, N(3)-(Cyclohexylmethyl)-1-(2,4-difluorophenyl)-4,5,6,7-tetrahydro-1H-4,7-methano-indazole-3-carboxamide]		melting point: 94 to 97 °C
O=C(NCc1cccs1)c1nn(-c2ccc(F)cc2F)c2c1C1CCC2C1 (stereo not drawn) [Example 331, N(3)-(2-thiophenemethyl)-1-(2,4-difluorophenyl)-4,5,6,7-tetrahydro-1H-4,7-methano-indazole-3-carboxamide]		% Displacement Protocol IV [1, 2]: 75.26%
CC12CCC(c3c(C(=O)Nc4ccccc4)nn(-c4ccc(Cl)cc4Cl)c31)C2(C)C (stereo not drawn) [Example 401, N(3)-Phenyl-1-(2,4-dichlorophenyl)-7,8,8-trim ethyl-4,5,6,7-tetrahydro-1H-4,7-methano-indazole-3-carboxamide]		melting point: 112 to 115 °C
CC12CCC(c3c(C(=O)N[C@@H](CO)c4ccccc4)nn(-c4ccc(F)cc4F)c31)C2(C)C (stereo partly drawn) [Example 410]		% Displacement Protocol IV [1, 2]: 15.5%
CC(C)(C)NC(=O)C1C2=C(NN1Cc1ccc(F)cc1)C1CCC2C1 (stereo not drawn) [Example 335b, N(3)-(tert-butyl)-2-(4-fluorobenzyl)-4,5,6,7-tetrahydro-1H-4,7-methano-indazole-3-carboxamide]	8.7	
CC(C)(C)NC(=O)c1nn(-c2ccc(Br)cc2)c2c1C1CCC2C1 (stereo not drawn) [Example 324, N(3)-(tert-Butyl)-1-(4-bromophenyl)-4,5,6,7-tetrahydro-1H-4,7-methano-indazole-3-carboxamide]		inhibition at 0.3 µM [1]: 88.5%
Cc1ccc(CN2NC3=C(C4CCC3C4)C2C(=O)NC(C)(C)C)cc1 (stereo not drawn) [Example 336b, N(3)-(tert-butyl)-2-(4-methylbenzyl)-4,5,6,7-tetrahydro-1H-4,7-methano-indazole-3-carboxamide]	26.5	
CN(NC(=O)c1nn(-c2ccc(Cl)cc2Cl)c2c1C1CCC2C1)c1ccccc1Cl (stereo not drawn) [Example 258, N(3)-[N-(2-Chlorophenyl)-N-methylamino]-1-(2,4-dichlorophenyl)-4,5,6,7-tetrahydro-1H-4,7-methano-indazole-3-carboxamide]		melting point: 121 to 124 °C
CC12CCC(C1)C(C)(C)C2NC(=O)c1nn(-c2ccc(Cl)cc2Cl)c2c1C1CCC2c2ccccc21 (stereo not drawn) [Example 507, N12-(1,3,3-Trimethylbicyclo[2.2.1]hept-2-yl)-10-(2,4-dichlorophenyl)-10,11-diazatetracyclo[6.5.2.0^2,7.0^9,13]pentadeca-2(7),3,5,9(13),11-pentaene-12-carboxamide]	91.7	
O=C(NCc1c(F)cccc1F)c1nn(-c2ccc(Cl)cc2Cl)c2c1C1CCC2C1 (stereo not drawn) [Example 248, N(3)-(2,6-Difluorobenzyl)-1-(2,4-dichlorophenyl)-4,5,6,7-tetrahydro-1H-4,7-methano-indazole-3-carboxamide]		melting point: 130 to 133 °C
CC(C)(C)NC(=O)c1nn(-c2ccc(Cl)cc2Cl)c2c1C1CCC2C1 (stereo not drawn) [Example 327, N(3)-(tert-Butyl)-1-(2,4-dichlorophenyl)-4,5,6,7-tetrahydro-1H-4,7-methano-indazole-3-carboxamide]	100	
COC(=O)[C@H](CC(C)C)NC(=O)c1nn(-c2ccc(F)cc2F)c2c1C1CCC2C1 (stereo partly drawn) [Example 333, Methyl-(2S)-2-[5-(2,4-difluorophenyl)-4,5-diazatricyclo[5.2.1.0.^2,6]deca-2(6),3-dien-3-ylcarboxamido]-4-methylpentanoate]		% Displacement Protocol IV [1, 2]: 100.00%
CC(C)(NC(=O)c1nn(-c2ccc(Cl)cc2Cl)c2c1C1CCC2c2ccccc21)c1ccccc1 (stereo not drawn) [Example 508, N12-(1-Methyl-1-phenylethyl)-10-(2,4-dichlorophenyl)-10,11-diazatetracyclo[6.5.2.0^2,7.0^9,13]pentadeca-2,4,6,9(13),11-pentaene-12-carboxamide]	67.7	
O=C(NNc1ccccc1F)c1nn(-c2ccc(Br)cc2)c2c1C1CCC2C1 (stereo not drawn) [Example 278, N(3)-[(2-Fluorophenyl)amino]-1-(4-bromophenyl)-4,5,6,7-tetrahydro-1H-4,7-methano-indazole-3-carboxamide]		melting point: 123 °C
O=C(NCc1ccccc1Cl)c1nn(-c2ccc(F)cc2F)c2c1C1CCC2C1 (stereo not drawn) [Example 297, N5-(2-Chlorobenzyl)-3-(2,4-difluorophenyl)-3,4-diazatricyclo[5.2.1.0^2,6]deca-2(6),4-diene-5-carboxamide]	70.3	
O=C(Nc1ccc(O)cc1)c1nn(-c2ccc(F)cc2F)c2c1C1CCC2C1 (stereo not drawn) [Example 328, N(3)-(4-Hydroxyphenyl)-1-(2,4-difluorophenyl)-4,5,6,7-tetrahydro-1H-4,7-methano-indazole-3-carboxamide]	64.4	
CC(C)(C)NC(=O)c1nn(-c2ccc(F)cc2F)c2c1C1CCC2c2ccccc21 (stereo not drawn) [Example 702, N(12)-tert-Butyl-10-(2,4-difluorophenyl)-10,11-diazatetracyclo[6.5.2.0^2,7.0^9,13]tetradeca-2,4,6,9(13),11-pentaene-12-carboxamide]		% Displacement Protocol IV [1, 2]: 33.00%
O=C(NCc1ccccc1Cl)c1nn(-c2ccc(Cl)cn2)c2c1C1CC3CC(C1)CC2C3 [Example 185, N7-(2-Chlorobenzyl)-5-(5-chloro-2-pyridyl)-5,6-diazatetracyclo[7.3.1.1^3,11.0^4,8]tetradeca-4(8),6-diene-7-carboxamide]	60.7	
CC(NC(=O)c1nn(-c2ccc(F)cc2F)c2c1C1CC3CC(C1)CC2C3)c1ccccc1Cl (stereo not drawn) [Example 151, N(7)-[1-(2-Chlorophenyl)ethyl]-5-(2,4-difluorophenyl)-5,6-diazatetracyclo[7.3.1.1^3,11.0^4,8]tetradeca-4(8),6-diene-7-carboxamide]	69.2	
O=C(N[C@H](CO)c1ccc(F)cc1)c1nn(-c2ccc(F)cc2F)c2c1C1CCC2C1 (stereo partly drawn) [Example 332, N(3)-[(1S)-2-Hydroxy-1-(4-fluorophenyl)ethyl]-1-(2,4-difluorophenyl)-4,5,6,7-tetrahydro-1H-4,7-methano-indazole-3-carboxamide]	70.1	
CN1CCN(NC(=O)c2nn(-c3ccc(F)cc3F)c3c2C2CCC3C2)CC1 (stereo not drawn) [Example 318, N(3)-(4-methylpiperazino)-1-(2,4-difluorophenyl)-4,5,6,7-tetrahydro-1H-4,7-methano-indazole-3-carboxamide]	31	
CC(C)(C)NC(=O)c1nn(-c2ccc(Cl)cc2)c2c1C1CCC2C1 (stereo not drawn) [Example 321, N(3)-(tert-Butyl)-1-(4-chlorophenyl)-4,5,6,7-tetrahydro-1H-4,7-methano-indazole-3-carboxamide]	92.9	
CC(C)(C)NC(=O)c1n[nH]c2c1C1(c3ccc(Cl)c(Cl)c3)CCC2C1 (stereo not drawn) [Example 325, N(3)-(tert-Butyl)-4-(3,4-dichlorophenyl)-4,5,6,7-tetrahydro-1H-4,7-methano-indazole-3-carboxamide]	99.6	
CCCCCn1nc2c(c1C(=O)NC(C)(C)c1ccccc1)C1CC3CC(CC2C3)C1 [Example 190a, N(7)-(1-Methyl-1-phenylethyl)-6-pentyl-5,6-diazatetracyclo[7.3.1.1^3,11.0^4,8]tetradeca-4,7-diene-7-carboxamide]		inhibition at 0.3 µM [1]: 0%
O=C(NC12CC3CC(CC(C3)C1)C2)c1nn(-c2ccc(F)cc2F)c2c1C1CCC2C1 (stereo not drawn) [Example 334, N(3)-(Adamantan-1yl)-1-(2,4-difluorophenyl)-4,5,6,7-tetrahydro-1H-4,7-methano-indazole-3-carboxamide]		inhibition at 0.3 µM [1]: 100%
O=C(NCc1ccco1)c1nn(-c2ccc(F)cc2F)c2c1C1CCC2C1 (stereo not drawn) [Example 330, N(3)-(2-furylmethyl)-1-(2,4-difluorophenyl)-4,5,6,7-tetrahydro-1H-4,7-methano-indazole-3-carboxamide]	64.9	
CC(NC(=O)c1nn(-c2ccc(Cl)cc2)c2c1C1CC3CC(C1)CC2C3)c1ccccc1Cl (stereo not drawn) [Example 138, N7-[1-(2-Chlorophenyl)ethyl]-5-(4-chlorophenyl)-5,6-diazatetracyclo[7.3.1.1^3,11.0^4,8]tetradeca-4(8),6-diene-7-carboxamide]	68	
CC(C)(C)NC(=O)c1nn(-c2ccc(F)cc2F)c2c1[C@H]1CC[C@]2(C)C1(C)C [Example 411, (4S,7R)—N(3)-tert-Butyl-1-(2,4-difluorophenyl)-7,8,8-trimethyl-4,5,6,7-tetrahydro-1H-methano-indazole-3-carboxamide]		% Displacement Protocol IV [1, 2]: 49.68%
CC(C)(C)NC(=O)c1nn(Cc2ccc(F)cc2)c2c1C1CCC2C1 (stereo not drawn) [Example 335a, N(3)-(tert-butyl)-1-(4-fluorobenzyl)-4,5,6,7-tetrahydro-1H-4,7-methano-indazole-3-carboxamide]		inhibition at 0.3 µM [1]: 96.5%

— patent US7923465B2, “Cannabinoid receptor ligands, pharmaceutical compositions containing them, and process for their preparation” (priority 2005, dated 2011)
